In assay [1] the target is Ribosomal protein S6 kinase alpha-4 (Homo sapiens) (UniProt O75676). In words: Binding affinity to wild-type human partial length N-terminal RPS6KA4 kinase domain 1 expressed in bacterial expression system assessed as residual binding level at 1 uM by Kinomescan method relative to control.
Assay [2] deals with Insulin receptor (Homo sapiens) (UniProt P06213). In words: Binding affinity to wild-type human partial length INSR (P997 to E1318 residues) expressed in mammalian expression system assessed as residual binding level at 1 uM by Kinomescan method relative to control.
Assay [3] has as its target Mitogen-activated protein kinase 3 (Homo sapiens) (UniProt P27361). The assay can be described thus: Binding affinity to wild-type human full length ERK1 (M1 to P379 residues) expressed in bacterial expression system assessed as residual binding level at 1 uM by Kinomescan method relative to control.
Assay [4] addresses Serine/threonine-protein kinase pim-3 (Homo sapiens) (UniProt Q86V86). The assay can be described thus: Binding affinity to wild-type human partial length PIM3 (G16 to A317 residues) expressed in bacterial expression system assessed as residual binding level at 1 uM by Kinomescan method relative to control.
The target of assay [5] is Tyrosine-protein kinase ABL1 (Homo sapiens) (UniProt P00519). The assay can be described thus: Binding affinity to wild-type human non-phosphorylated ABL1 (S229 to K512 residues) expressed in mammalian expression system assessed as residual binding level at 1 uM by Kinomescan method relative to control.
For assay [6], the target named is Interleukin-1 receptor-associated kinase 3 (Homo sapiens) (UniProt Q9Y616). In words: Binding affinity to wild-type human partial length IRAK3 (V147 to E596 residues) expressed in bacterial expression system assessed as residual binding level at 1 uM by Kinomescan method relative to control.
For assay [7], the system named is Phosphatidylinositol 4,5-bisphosphate 3-kinase catalytic subunit alpha isoform (Homo sapiens), P42336 [M1043I]. The assay can be described thus: Binding affinity to human partial length PIK3CA M1043I mutant (R108 to N1068 residues) expressed in mammalian expression system assessed as residual binding level at 1 uM by Kinomescan method relative to control.
For assay [8], the target named is Death-associated protein kinase 3 (Homo sapiens) (UniProt O43293). The assay can be described thus: Binding affinity to wild-type human partial length DAPK3 (M1 to A277 residues) expressed in bacterial expression system assessed as residual binding level at 1 uM by Kinomescan method relative to control.
For assay [9], the target named is Dual specificity mitogen-activated protein kinase kinase 4 (Homo sapiens) (UniProt P45985). The assay can be described thus: Binding affinity to wild-type human partial length MEK4 (S84 to D399 residues) expressed in mammalian expression system assessed as residual binding level at 1 uM by Kinomescan method relative to control.
The test system of assay [10] is Tyrosine-protein kinase ABL1 (Homo sapiens), P00519 [Q252H]. In words: Binding affinity to human phosphorylated ABL1 Q252H mutant expressed in mammalian expression system assessed as residual binding level at 1 uM by Kinomescan method relative to control.
The target in assay [11] is cGMP-dependent protein kinase 2 (Homo sapiens) (UniProt Q13237). In words: Binding affinity to wild-type human partial length PRKG2 (S422 to F762 residues) expressed in mammalian expression system assessed as residual binding level at 1 uM by Kinomescan method relative to control.
The subject of assay [12] is Epidermal growth factor receptor (Homo sapiens), P00533 [G719C]. The assay can be described thus: Binding affinity to human partial length EGFR G719C mutant (R669 to V1011 residues) expressed in bacterial expression system assessed as residual binding level at 1 uM by Kinomescan method relative to control.
Assay [13] concerns the target Mitogen-activated protein kinase kinase kinase 4 (Homo sapiens) (UniProt Q9Y6R4). In words: Binding affinity to wild-type human partial length MAP3K4 (G1319 to E1608 residues) expressed in bacterial expression system assessed as residual binding level at 1 uM by Kinomescan method relative to control.
For assay [14], the target named is Protein-tyrosine kinase 2-beta (Homo sapiens) (UniProt Q14289). In words: Binding affinity to wild-type human full length PYK2 (M1 to E967 residues) expressed in bacterial expression system assessed as residual binding level at 1 uM by Kinomescan method relative to control.
Assay [15] addresses Serine/threonine-protein kinase 32A (Homo sapiens) (UniProt Q8WU08). In words: Binding affinity to wild-type human full length YANK1 (M1 to L396 residues) expressed in mammalian expression system assessed as residual binding level at 1 uM by Kinomescan method relative to control.
The target in assay [16] is Mitogen-activated protein kinase kinase kinase 19 (Homo sapiens) (UniProt Q56UN5). The assay can be described thus: Binding affinity to wild-type human partial length YSK4 (T1019 to H1328 residues) expressed in mammalian expression system assessed as residual binding level at 1 uM by Kinomescan method relative to control.
Assay [17] addresses Tyrosine-protein kinase CSK (Homo sapiens) (UniProt P41240). The assay can be described thus: Binding affinity to wild-type human full length CSK (M1 to L450 residues) expressed in bacterial expression system assessed as residual binding level at 1 uM by Kinomescan method relative to control.
For assay [18], the system named is Epidermal growth factor receptor (Homo sapiens), P00533 [UNDEFINED MUTATION]. The assay can be described thus: Binding affinity to human partial length EGFR S752-I759del mutant expressed in bacterial expression system assessed as residual binding level at 1 uM by Kinomescan method relative to control.
Assay [19] concerns the target Serine/threonine-protein kinase Nek1 (Homo sapiens) (UniProt Q96PY6). The assay can be described thus: Binding affinity to wild-type human partial length NEK1 (M1 to K278 residues) expressed in bacterial expression system assessed as residual binding level at 1 uM by Kinomescan method relative to control.
Assay [20] deals with Serine/threonine-protein kinase/endoribonuclease IRE1 (Homo sapiens) (UniProt O75460). In words: Binding affinity to wild-type human partial length ERN1 (S551 to E852 residues) expressed in mammalian expression system assessed as residual binding level at 1 uM by Kinomescan method relative to control.
Assay [21] addresses Casein kinase I isoform gamma-3 (Homo sapiens) (UniProt Q9Y6M4). The assay can be described thus: Binding affinity to wild-type human full length CSNK1G3 (M1 to K447 residues) expressed in bacterial expression system assessed as residual binding level at 1 uM by Kinomescan method relative to control.
The target in assay [22] is Ribosomal protein S6 kinase alpha-2 (Homo sapiens) (UniProt Q15349). The assay can be described thus: Binding affinity to wild-type human partial length C-terminal RSK3 kinase domain 2 (V403 to K700 residues) expressed in bacterial expression system assessed as residual binding level at 1 uM by Kinomescan method relative to control.
Assay [23] has as its target Activin receptor type-1 (Homo sapiens) (UniProt Q04771). The assay can be described thus: Binding affinity to wild-type human ACVR1 (C188 to C509 residues) expressed in bacterial expression system assessed as residual binding level at 1 uM by Kinomescan method relative to control.
Assay [24] concerns Tyrosine-protein kinase ABL1 (Homo sapiens), P00519 [F317I]. In words: Binding affinity to human non-phosphorylated ABL1 F317I mutant (S229 to K512 residues) expressed in mammalian expression system assessed as residual binding level at 1 uM by Kinomescan method relative to control.

Each structure is given as a SMILES string.

Serine/threonine-protein kinase Nek1 (Homo sapiens), sequence (Q96PY6 whole entry, the tested form may be a part): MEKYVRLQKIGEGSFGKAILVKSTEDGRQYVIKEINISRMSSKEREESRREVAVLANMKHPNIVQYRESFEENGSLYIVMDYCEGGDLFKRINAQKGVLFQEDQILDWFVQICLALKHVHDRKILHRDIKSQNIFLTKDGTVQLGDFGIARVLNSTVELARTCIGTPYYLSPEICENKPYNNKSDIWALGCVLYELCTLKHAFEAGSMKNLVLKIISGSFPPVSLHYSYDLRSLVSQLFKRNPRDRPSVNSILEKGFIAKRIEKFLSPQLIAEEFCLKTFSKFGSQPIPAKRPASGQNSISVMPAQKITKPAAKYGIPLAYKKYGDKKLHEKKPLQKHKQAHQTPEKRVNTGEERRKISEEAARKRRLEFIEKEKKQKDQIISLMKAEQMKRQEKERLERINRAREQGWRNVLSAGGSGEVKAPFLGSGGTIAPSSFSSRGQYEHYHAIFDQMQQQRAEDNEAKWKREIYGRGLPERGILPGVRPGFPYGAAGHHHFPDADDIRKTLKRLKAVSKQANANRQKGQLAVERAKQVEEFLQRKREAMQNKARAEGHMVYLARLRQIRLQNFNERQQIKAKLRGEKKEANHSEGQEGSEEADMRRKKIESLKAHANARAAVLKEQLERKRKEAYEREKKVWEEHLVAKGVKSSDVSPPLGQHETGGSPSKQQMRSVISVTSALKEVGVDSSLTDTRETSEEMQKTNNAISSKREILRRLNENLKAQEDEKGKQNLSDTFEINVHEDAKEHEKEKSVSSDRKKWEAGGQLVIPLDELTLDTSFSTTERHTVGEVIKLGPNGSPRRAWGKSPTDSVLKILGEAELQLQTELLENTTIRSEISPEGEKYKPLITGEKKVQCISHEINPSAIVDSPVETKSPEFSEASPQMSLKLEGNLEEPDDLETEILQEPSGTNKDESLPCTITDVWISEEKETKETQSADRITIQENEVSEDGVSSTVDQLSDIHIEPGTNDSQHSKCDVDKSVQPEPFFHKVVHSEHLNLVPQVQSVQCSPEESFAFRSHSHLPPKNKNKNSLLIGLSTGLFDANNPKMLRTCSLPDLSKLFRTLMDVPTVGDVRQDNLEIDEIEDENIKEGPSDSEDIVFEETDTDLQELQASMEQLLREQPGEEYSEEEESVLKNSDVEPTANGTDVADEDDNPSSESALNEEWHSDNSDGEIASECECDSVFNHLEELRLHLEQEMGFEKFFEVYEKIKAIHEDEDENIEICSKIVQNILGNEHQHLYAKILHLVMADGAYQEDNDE
Dual specificity mitogen-activated protein kinase kinase 4 (Homo sapiens), sequence (P45985 whole entry, the tested form may be a part): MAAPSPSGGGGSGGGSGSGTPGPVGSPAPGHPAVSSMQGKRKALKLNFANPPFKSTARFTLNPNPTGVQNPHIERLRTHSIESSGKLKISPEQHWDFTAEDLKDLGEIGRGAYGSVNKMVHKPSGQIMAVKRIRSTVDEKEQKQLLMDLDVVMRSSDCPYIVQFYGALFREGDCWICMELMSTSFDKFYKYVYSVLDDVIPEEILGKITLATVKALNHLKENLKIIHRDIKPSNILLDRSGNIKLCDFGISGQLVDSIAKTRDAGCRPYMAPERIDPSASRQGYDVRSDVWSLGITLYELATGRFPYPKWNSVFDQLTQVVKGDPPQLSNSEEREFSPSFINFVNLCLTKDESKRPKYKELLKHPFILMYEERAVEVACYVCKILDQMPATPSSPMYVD
Serine/threonine-protein kinase 32A (Homo sapiens), sequence (Q8WU08 whole entry, the tested form may be a part): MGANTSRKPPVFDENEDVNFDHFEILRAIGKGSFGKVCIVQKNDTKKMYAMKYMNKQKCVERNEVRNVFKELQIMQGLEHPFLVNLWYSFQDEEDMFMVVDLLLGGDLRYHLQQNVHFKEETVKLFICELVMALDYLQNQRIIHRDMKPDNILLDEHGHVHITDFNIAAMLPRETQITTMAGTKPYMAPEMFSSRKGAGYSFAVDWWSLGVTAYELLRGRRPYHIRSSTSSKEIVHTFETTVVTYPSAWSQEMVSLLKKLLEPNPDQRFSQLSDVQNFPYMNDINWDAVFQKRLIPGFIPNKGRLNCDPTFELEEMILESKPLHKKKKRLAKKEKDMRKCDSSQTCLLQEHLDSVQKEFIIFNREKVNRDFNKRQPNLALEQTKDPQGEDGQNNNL
Ribosomal protein S6 kinase alpha-4 (Homo sapiens), sequence (O75676 whole entry, looked up, the tested form may be a part): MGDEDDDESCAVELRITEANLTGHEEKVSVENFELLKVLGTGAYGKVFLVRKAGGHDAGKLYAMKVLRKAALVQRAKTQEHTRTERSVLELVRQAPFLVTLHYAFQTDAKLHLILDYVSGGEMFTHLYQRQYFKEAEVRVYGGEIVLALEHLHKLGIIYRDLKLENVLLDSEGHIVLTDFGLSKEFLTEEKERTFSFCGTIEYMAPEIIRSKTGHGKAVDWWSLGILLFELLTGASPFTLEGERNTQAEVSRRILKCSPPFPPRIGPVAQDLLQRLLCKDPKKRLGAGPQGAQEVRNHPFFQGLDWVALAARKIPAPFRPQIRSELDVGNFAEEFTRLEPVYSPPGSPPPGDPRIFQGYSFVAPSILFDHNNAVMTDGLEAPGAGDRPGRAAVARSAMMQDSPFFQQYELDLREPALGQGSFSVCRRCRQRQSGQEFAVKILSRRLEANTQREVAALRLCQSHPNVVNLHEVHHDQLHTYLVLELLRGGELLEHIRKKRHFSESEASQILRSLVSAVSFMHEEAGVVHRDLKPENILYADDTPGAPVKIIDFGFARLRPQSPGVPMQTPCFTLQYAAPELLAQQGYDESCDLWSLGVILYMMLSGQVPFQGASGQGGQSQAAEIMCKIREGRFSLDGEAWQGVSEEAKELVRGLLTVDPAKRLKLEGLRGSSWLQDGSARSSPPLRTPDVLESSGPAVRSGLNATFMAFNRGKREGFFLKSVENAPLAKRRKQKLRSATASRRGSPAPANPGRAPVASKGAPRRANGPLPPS
cGMP-dependent protein kinase 2 (Homo sapiens), sequence (Q13237 whole entry, the tested form may be a part): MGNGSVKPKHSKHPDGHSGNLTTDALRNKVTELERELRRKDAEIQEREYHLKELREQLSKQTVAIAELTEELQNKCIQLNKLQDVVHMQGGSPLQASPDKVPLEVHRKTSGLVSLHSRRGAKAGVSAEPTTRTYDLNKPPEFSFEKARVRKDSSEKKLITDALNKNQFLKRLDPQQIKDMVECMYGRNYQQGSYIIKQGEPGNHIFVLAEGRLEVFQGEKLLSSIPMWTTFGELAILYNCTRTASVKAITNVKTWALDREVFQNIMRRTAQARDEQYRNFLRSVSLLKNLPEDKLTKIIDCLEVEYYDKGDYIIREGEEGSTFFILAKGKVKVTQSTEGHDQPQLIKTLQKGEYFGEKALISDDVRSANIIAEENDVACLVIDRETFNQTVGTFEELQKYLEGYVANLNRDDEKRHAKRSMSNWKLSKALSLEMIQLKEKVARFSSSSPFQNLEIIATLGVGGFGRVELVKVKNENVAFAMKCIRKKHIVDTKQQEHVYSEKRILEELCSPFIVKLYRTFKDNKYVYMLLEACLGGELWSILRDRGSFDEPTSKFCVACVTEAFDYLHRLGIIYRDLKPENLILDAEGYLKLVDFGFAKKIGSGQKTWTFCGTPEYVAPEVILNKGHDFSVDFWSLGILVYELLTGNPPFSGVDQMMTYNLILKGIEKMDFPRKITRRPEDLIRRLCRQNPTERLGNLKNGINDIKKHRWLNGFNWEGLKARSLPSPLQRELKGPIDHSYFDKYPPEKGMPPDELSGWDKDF
Death-associated protein kinase 3 (Homo sapiens), sequence (O43293 whole entry, looked up, the tested form may be a part): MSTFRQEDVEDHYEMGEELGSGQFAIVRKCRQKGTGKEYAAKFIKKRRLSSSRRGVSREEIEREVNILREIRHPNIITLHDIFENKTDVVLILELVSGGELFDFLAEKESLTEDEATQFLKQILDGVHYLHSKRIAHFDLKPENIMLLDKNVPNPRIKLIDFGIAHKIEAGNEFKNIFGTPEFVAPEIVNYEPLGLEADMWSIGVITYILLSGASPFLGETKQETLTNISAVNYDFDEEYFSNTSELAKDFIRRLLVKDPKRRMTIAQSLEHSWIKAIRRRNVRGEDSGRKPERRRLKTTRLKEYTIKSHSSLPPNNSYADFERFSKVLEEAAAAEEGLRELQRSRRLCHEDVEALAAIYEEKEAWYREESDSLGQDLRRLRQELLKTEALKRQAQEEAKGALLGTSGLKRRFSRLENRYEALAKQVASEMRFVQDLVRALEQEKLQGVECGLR
Serine/threonine-protein kinase/endoribonuclease IRE1 (Homo sapiens), sequence (O75460 19-977 limits assumed): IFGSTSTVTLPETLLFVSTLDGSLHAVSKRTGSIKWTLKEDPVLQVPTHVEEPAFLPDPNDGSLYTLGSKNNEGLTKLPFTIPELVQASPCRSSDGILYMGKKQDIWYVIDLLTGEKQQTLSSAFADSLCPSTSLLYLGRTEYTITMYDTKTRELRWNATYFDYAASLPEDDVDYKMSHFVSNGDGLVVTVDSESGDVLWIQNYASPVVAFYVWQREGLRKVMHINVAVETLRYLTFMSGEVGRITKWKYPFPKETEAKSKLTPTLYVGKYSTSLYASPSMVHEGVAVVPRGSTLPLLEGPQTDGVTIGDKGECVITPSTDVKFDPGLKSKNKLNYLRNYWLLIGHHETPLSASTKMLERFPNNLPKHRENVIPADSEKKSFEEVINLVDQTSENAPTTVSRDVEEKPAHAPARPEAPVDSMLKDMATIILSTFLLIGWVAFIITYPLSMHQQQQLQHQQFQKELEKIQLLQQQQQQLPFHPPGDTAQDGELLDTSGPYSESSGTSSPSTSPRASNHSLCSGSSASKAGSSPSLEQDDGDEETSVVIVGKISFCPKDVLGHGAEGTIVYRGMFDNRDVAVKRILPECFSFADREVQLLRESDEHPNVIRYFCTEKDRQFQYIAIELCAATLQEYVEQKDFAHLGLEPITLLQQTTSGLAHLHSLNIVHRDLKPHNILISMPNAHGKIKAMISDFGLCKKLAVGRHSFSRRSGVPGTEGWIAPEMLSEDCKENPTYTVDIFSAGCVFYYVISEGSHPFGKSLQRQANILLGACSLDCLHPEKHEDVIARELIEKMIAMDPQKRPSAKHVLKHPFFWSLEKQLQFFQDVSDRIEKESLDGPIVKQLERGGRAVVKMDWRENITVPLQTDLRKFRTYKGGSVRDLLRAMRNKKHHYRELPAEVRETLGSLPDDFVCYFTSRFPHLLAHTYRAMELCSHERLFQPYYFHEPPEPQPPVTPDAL

For `CC(C)Nc1sc(C(=O)c2ccc(Cl)s2)c(N)c1C#N`, the Activity was 100% in assay [1]; 80% in assay [2]; 95% in [3]; 86% in assay [4]; 100% in assay [5]; 86% in assay [6]. The Activity in assay [7] was found to be 97%; in assay [8] it was 74%; in assay [9] it was 82%; in assay [10], 100%; in assay [11] it was 100%; in [12], 100%. Moreover, the Activity was found to be 100% in [13]; 100% in assay [14]; 98% in assay [15]; 100% in assay [16]; 88% in assay [17]; 75% in [18]. Moreover, the Activity stood at 79% in assay [19]; 100% in assay [20]; 77% in assay [21]; 98% in [22]; 47% in [23]; 100% in [24].

Source of the values: ChEMBL document CHEMBL4330132, “5-Keto-3-cyano-2,4-diaminothiophenes as selective maternal embryonic leucine zipper kinase inhibitors” (Bioorg Med Chem Lett, 2019).
